Measured values as given in patent US20220002314A1 (priority 2018, published 2022).
Like-named read-outs stand apart in the source and are kept apart here.

Tests used:
Human μ-opioid receptor = Human μ-opioid receptor (Homo sapiens, UniProt P35372); assay: biochemical; assay type: binding
[1] = target: Human α2δ-1 subunit of Cav2.2 calcium channel (Homo sapiens, UniProt P54289); assay: biochemical; assay type: binding
Sequence of Human α2δ-1 subunit of Cav2.2 calcium channel (P54289 25-1103): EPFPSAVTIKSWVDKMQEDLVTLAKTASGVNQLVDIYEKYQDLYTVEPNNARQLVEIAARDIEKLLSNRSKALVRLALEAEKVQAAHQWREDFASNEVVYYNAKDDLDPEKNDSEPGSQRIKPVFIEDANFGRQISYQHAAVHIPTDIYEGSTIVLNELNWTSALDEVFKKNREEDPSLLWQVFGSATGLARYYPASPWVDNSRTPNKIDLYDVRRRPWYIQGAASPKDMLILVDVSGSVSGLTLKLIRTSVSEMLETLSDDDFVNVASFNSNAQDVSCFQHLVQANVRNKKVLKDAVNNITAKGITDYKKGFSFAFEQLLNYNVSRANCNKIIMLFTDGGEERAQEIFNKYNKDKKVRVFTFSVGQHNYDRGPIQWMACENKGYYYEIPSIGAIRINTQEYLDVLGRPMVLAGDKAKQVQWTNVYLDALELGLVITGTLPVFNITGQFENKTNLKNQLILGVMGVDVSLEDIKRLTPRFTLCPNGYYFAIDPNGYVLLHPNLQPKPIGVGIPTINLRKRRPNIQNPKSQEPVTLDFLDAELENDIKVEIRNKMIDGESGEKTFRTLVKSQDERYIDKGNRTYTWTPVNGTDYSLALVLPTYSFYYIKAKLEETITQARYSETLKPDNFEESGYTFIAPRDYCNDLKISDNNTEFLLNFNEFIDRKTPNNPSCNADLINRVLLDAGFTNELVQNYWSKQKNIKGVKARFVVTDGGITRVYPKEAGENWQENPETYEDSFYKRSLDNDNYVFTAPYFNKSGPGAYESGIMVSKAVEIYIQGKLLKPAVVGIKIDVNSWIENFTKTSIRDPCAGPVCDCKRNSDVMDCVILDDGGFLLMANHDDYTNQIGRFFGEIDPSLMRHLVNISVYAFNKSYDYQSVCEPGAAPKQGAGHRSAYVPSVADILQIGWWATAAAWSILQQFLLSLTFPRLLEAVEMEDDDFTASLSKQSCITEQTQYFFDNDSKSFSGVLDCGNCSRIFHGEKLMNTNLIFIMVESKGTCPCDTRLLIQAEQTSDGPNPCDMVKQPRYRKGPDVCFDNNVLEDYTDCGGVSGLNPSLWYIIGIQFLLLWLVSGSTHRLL

Sequence of Human μ-opioid receptor (P35372 whole entry): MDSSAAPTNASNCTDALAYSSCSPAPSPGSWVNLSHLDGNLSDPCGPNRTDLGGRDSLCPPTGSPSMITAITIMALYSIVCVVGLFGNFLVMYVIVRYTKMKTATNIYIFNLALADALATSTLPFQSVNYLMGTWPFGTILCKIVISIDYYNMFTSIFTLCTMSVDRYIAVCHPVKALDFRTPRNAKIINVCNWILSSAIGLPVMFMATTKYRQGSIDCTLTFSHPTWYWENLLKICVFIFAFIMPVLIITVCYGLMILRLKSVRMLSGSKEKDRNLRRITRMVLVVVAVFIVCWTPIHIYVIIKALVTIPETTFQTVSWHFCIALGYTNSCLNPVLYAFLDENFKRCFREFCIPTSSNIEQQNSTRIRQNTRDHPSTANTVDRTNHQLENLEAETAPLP

| Ki (Human μ-opioid receptor; read-out: μ-binding) [nM] | Ki ([1]; read-out: α2δ-1 binding) [nM] | Compound | Ki (Human μ-opioid receptor) [nM] | Ki [1] [nM] |
| --- | --- | --- | --- | --- |
| – | – | CCC[C@H](c1nc2ccc(NCC[C@]3(c4ccccn4)CCOC4(CCCC4)C3)cc2c(=O)n1CC)N1C[C@@H](C)N[C@@H](C)C1 [Example 159, 2-((R)-1-((3S,5R)-3,5-dimethylpiperazin-1-yl)butyl)-3-ethyl-6-((2-((S)-9-(pyridin-2-yl)-6-oxaspiro[4.5]decan-9-yl)ethyl)amino)quinazolin-4(3H)-one] | > 500 | 500 to 5000 |
| – | – | CCC[C@H](c1nc2ccc(NCC[C@@]3(c4ccccn4)CCOC4(CCCC4)C3)cc2c(=O)n1CC)N1C[C@@H](C)N[C@@H](C)C1 [Example 160, 2-((R)-1-((3S,5R)-3,5-dimethylpiperazin-1-yl)butyl)-3-ethyl-6-((2-((R)-9-(pyridin-2-yl)-6-oxaspiro[4.5]decan-9-yl)ethyl)amino)quinazolin-4(3H)-one] | > 500 | < 500 |
| – | – | CCC[C@@H](c1nc2ccc(NCC[C@]3(c4ccccn4)CCOC4(CCCC4)C3)cc2c(=O)n1CC)N1C[C@@H](C)N[C@@H](C)C1 [Example 161, 2-((S)-1-((3S,5R)-3,5-dimethylpiperazin-1-yl)butyl)-3-ethyl-6-((2-((S)-9-(pyridin-2-yl)-6-oxaspiro[4.5]decan-9-yl)ethyl)amino)quinazolin-4(3H)-one] | > 500 | > 5000 |
| > 500 | 500 to 5000 | CCCC(c1nc2c(Br)c(N(Cc3cccc(OC)c3)C(=O)OC(C)(C)C)ccc2c(=O)n1CC)N1C[C@@H](C)N[C@@H](C)C1 (stereo partly drawn) [Example 162, tert-Butyl (8-bromo-2-(1-((3S,5R)-3,5-dimethylpiperazin-1-yl)butyl)-3-ethyl-4-oxo-3,4-dihydroquinazolin-7-yl)(3-methoxybenzyl)carbamate] | – | – |
| – | – | CCC[C@@H](c1nc2cc(O[C@H](CCNC)c3ccccc3)ccc2c(=O)n1C)N1C[C@@H](C)N[C@@H](C)C1 [Example 164, 2-((S)-1-((3S,5R)-3,5-Dimethylpiperazin-1-yl)butyl)-3-methyl-7-((R)-3-(methylamino)-1-phenylpropoxy)quinazolin-4(3H)-one] | > 500 | 500 to 5000 |
| – | – | CCC[C@H](c1nc2cc(O[C@H](CCNC)c3ccccc3)ccc2c(=O)n1C)N1C[C@@H](C)N[C@@H](C)C1 [Example 165, 2-((R)-1-((3S,5R)-3,5-dimethylpiperazin-1-yl)butyl)-3-methyl-7-((R)-3-(methylamino)-1-phenylpropoxy)quinazolin-4(3H)-one] | > 500 | 500 to 5000 |
| – | – | CCC[C@@H](c1nc2cc(O[C@@H](CCNC)c3ccccc3)ccc2c(=O)n1C)N1C[C@@H](C)N[C@@H](C)C1 [Example 166, 2-((S)-1-((3S,5R)-3,5-dimethylpiperazin-1-yl)butyl)-3-methyl-7-((S)-3-(methylamino)-1-phenylpropoxy)quinazolin-4(3H)-one] | > 500 | < 500 |
| – | – | CCC[C@H](c1nc2cc(O[C@@H](CCNC)c3ccccc3)ccc2c(=O)n1C)N1C[C@@H](C)N[C@@H](C)C1 [Example 167, 2-((R)-1-((3S,5R)-3,5-dimethylpiperazin-1-yl)butyl)-3-methyl-7-((S)-3-(methylamino)-1-phenylpropoxy)quinazolin-4(3H)-one] | > 500 | < 500 |
| – | – | CCC[C@@H](c1nc2cc(O[C@H](CNC)c3ccccc3)ccc2c(=O)n1C)N1C[C@@H](C)N[C@@H](C)C1 [Example 168, 2-((S)-1-((3S,5R)-3,5-dimethylpiperazin-1-yl)butyl)-3-methyl-7-((S)-2-(methylamino)-1-phenylethoxy)quinazolin-4(3H)-one] | > 500 | 500 to 5000 |
| – | – | CCC[C@H](c1nc2cc(O[C@@H](CNC)c3ccccc3)ccc2c(=O)n1C)N1C[C@@H](C)N[C@@H](C)C1 [Example 169, 2-((R)-1-((3S,5R)-3,5-dimethylpiperazin-1-yl)butyl)-3-methyl-7-((R)-2-(methylamino)-1-phenylethoxy)quinazolin-4(3H)-one] | > 500 | 500 to 5000 |
| – | – | CCC[C@H](c1nc2cc(O[C@H](CNC)c3ccccc3)ccc2c(=O)n1C)N1C[C@@H](C)N[C@@H](C)C1 [Example 170, 2-((R)-1-((3S,5R)-3,5-dimethylpiperazin-1-yl)butyl)-3-methyl-7-((S)-2-(methylamino)-1-phenylethoxy)quinazolin-4(3H)-one] | > 500 | < 500 |
| – | – | CCC[C@@H](c1nc2cc(O[C@@H](CNC)c3ccccc3)ccc2c(=O)n1C)N1C[C@@H](C)N[C@@H](C)C1 [Example 171, 2-((S)-1-((3S,5R)-3,5-dimethylpiperazin-1-yl)butyl)-3-methyl-7-((R)-2-(methylamino)-1-phenylethoxy)quinazolin-4(3H)-one] | > 500 | 500 to 5000 |
| – | – | CCCC(c1nc2cc(CO)ccc2c(=O)n1C)N1C[C@@H](C)N[C@@H](C)C1 (stereo partly drawn) [Example 172, 2-(1-((3S,5R)-3,5-Dimethylpiperazin-1-yl)butyl)-7-(hydroxymethyl)-3-methylquinazolin-4(3H)-one] | > 500 | < 500 |
| – | – | CCCC(c1nc2ccc(CCO)cc2c(=O)n1CC)N1C[C@@H](C)N[C@@H](C)C1 (stereo partly drawn) [Example 173, 2-(1-((3S,5R)-3,5-Dimethylpiperazin-1-yl)butyl)-3-ethyl-6-(2-hydroxyethyl)quinazolin-4(3H)-one] | > 500 | < 500 |
| – | – | CCCC(c1nc2ccc(CCN(C)Cc3ccccc3)cc2c(=O)n1CC)N1C[C@@H](C)N[C@@H](C)C1 (stereo partly drawn) [Example 174, 6-(2-(Benzyl(methyl)amino)ethyl)-2-(1-((3S,5R)-3,5-dimethylpiperazin-1-yl)butyl)-3-ethylquinazolin-4(3H)-one] | > 500 | < 500 |
| – | – | CCCC(c1nc2ccc(CCN(C)CCC(C)C)cc2c(=O)n1CC)N1C[C@@H](C)N[C@@H](C)C1 (stereo partly drawn) [Example 175, 2-(1-((3S,5R)-3,5-dimethylpiperazin-1-yl)butyl)-3-ethyl-6-(2-(isopentyl(methyl)amino)ethyl)quinazolin-4(3H)-one] | > 500 | < 500 |
| – | – | CCCC(c1nc2cc(C#N)ccc2c(=O)n1C)N1C[C@@H](C)N[C@@H](C)C1 (stereo partly drawn) [Example 176, 2-(1-((3S,5R)-3,5-Dimethylpiperazin-1-yl)butyl)-3-methyl-4-oxo-3,4-dihydroquinazoline-7-carbonitrile] | > 500 | < 500 |
| – | – | CCCC(c1nc2ccc(C#N)cc2c(=O)n1CC)N1C[C@@H](C)N[C@@H](C)C1 (stereo partly drawn) [Example 177, 2-(1-((3S,5R)-3,5-dimethylpiperazin-1-yl)butyl)-3-ethyl-4-oxo-3,4-dihydroquinazoline-6-carbonitrile] | > 500 | < 500 |
| > 500 | 500 to 5000 | CCCC(c1nc2cc(C(=O)O)ccc2c(=O)n1C)N1C[C@@H](C)N[C@@H](C)C1 (stereo partly drawn) [Example 178, 2-(1-((3S,5R)-3,5-Dimethylpiperazin-1-yl)butyl)-3-methyl-4-oxo-3,4-dihydroquinazoline-7-carboxylic acid] | – | – |
| > 500 | 500 to 5000 | CCCC(c1nc2cc(C(=O)O)ccc2c(=O)n1CC)N1C[C@@H](C)N[C@@H](C)C1 (stereo partly drawn) [Example 179, 2-(1-((3S,5R)-3,5-dimethylpiperazin-1-yl)butyl)-3-ethyl-4-oxo-3,4-dihydroquinazoline-7-carboxylic acid] | – | – |
| – | – | CCCC(c1nc2cc(C(=O)NCc3ccccc3)ccc2c(=O)n1CC)N1C[C@@H](C)N[C@@H](C)C1 (stereo partly drawn) [Example 180, N-Benzyl-2-(1-((3S,5R)-3,5-dimethylpiperazin-1-yl)butyl)-3-ethyl-4-oxo-3,4-dihydroquinazoline-7-carboxamide] | > 500 | < 500 |
